# “And” between values parts separate entries of the source, which are not always exact repeats. Identical values can stand only once. “Also recorded” adds a separate entry of the source. Counter-ions that a name gives are not always drawn. Like-named read-outs stand apart in the source and are kept apart here.
# Assays:
# IGF-II P4 promoter [1] = conditions: cited from earlier work
# [2] = test system: motor neurons in primary spinal cord cultures; experiment: Low-level progressive glutamate excitotoxicity in primary spinal cord cultures; format: cell-based, mice; conditions: drug pretreatment, glutamate/PDC treatments 48 hours apart, FIG. 8
# Experimental: Primary spinal cord cultures from E12 pregnant mice were pre-treated for 72 hours with 1 μM, 2.5 μM, 5 μM, or 10 μM of a selected drug according to prior optimized dosing regimen. Drugs tested were identified during screening of qPCR. Subsequently, experimental cultures were grown in the presence of 0, 1.0 μM, 2.5 μM, or 10 μM drug for 24 hours prior to exposure to two glutamate (20 μM)/PDC (1 μM) or glutamate (50 μM)/PDC (10 μM) treatments 48 hours apart. Control samples (no glutamate/PDC treatment) were cultured for 24 hours in the presence of 10 μM drug administered 3 times to determine toxicity of treatment. All cultures were then fixed and stained with ChAT, Hoechst stain of the nuclei, and Islet1/2 antibody labels for the motorneuron columns. Results were analyzed using an In Cell Analyzer (GE Healthcare). Results were presented as percent of vehicle (DMSO) treated control cells.
# IGF-II mRNA = experiment: IGF-II expression assay, qPCR detection, in primary spinal cord cultures; format: cell-based, mice
# Experimental: Quantitative PCR utilizing SYBR green I (Molecular Probes, Eugene, Oreg.) or specific Taqman probes was used to confirm differential gene expression. RNA extracted from 100-200 LCMed motor neurons were reverse transcribed using Superscript III (Invitrogen). 2 μl of diluted cDNA was amplified (DNA Engine Opticon real-time PCR machine, Bio-Rad), in […] reactions containing 900 nM primer and 250 nM probe in Taqman Universal Master Mix (Applied Biosystems). Reactions were run in duplicate and each gene analyzed in at least three different animals. Reaction parameters were as follows: 50° C. for 2 min, 95° C. for 10 min, and 40 cycles of 95° C. for 15 s and 60° C. for 1 min. Controls lacking template and/or Superscript were included. The absolute copy number for each gene was quantified using a standard curve from human GAPDH plasmid and amplified products were normalized against rat GAPDH expression. Primers and probes (Integrated DNA technologies) were as follows: rat GAPDH: Forward primer: […]
# Two libraries of FDA-approved drugs (NINDS and Harvard LDDN) were screened for their ability to up-regulate IGF-II expression. Candidate compounds were screened in an IGF-II expression assay using a qPCR detection methodology in primary spinal cord cultures or using a luciferase reporter assay. In the initial screening, therapeutic candidates were identified as those that increased IGF-II expression by at least 2-fold. […]
# [3] = test system: spinal motor neurons in primary culture; experiment: Neuroprotection against glutamate-induced toxicity in primary spinal cord cultures; format: cell-based, rat; conditions: 10-100 ng/ml, 2-4 h pretreatment; 20 μM glutamate + 100 μM PDC
# Experimental: Time-pregnant Sprague Dawley wild-type rats were anesthetized, decapitated and E15.5 embryos collected, decapitated and spinal cords isolated in Hanks balanced salt solution (HBSS, Invitrogen). Dissections of spinal cords were done carefully to avoid the inclusion of somites or other external tissues. Cells were dissociated by gentle trituration and incubation with papain (Worthington Biochemical Corporation). Cells were cultured for 6 days in Neurobasal media (Invitrogen) containing 10% fetal bovine serum (FBS, Fisher scientific), 1×B27 supplement (Invitrogen), 500 μM glutamine (Invitrogen), […] mercaptoethanol (Invitrogen), Penicillin-Streptomycin (Invitrogen) or in DMEM/F12 (Invitrogen) containing 5% FBS, 1×N2 supplement A (Stem Cell Technologies), glucose (0.36%, Sigma), bovine serum albumin (0.25%, Invitrogen), Penicillin-Streptomycin (Invitrogen). Either culture media could maintain spinal cord cultures containing motor neurons. […]
# For immunofluorescent staining, coverslips/sections were rinsed with phosphate buffered saline and incubated with blocking buffer (see above) for 1 h. […] The effect of glutamate, IGF-II and/or guanine deaminase on motor neuron survival was carefully evaluated, as was the co-localization of motor neuron markers.
# IGF-II P4 promoter [4] = experiment: Luciferase reporter assay, P4 IGF-II promoter cell line (SK-N-FI cells); format: cell-based; conditions: FIG. 9, HCl
# Experimental: pGL4.17[luc/Neo] reporter constructs were transfected to contain the P4 IGF-II promoter using the Blue Heron Bio GeneMaker. After transfection of reporter constructs into SK-N-FI cells+IGF-II using G418 selection pressure for generation of stable cell-line, clonal expansion, IGF-II up-regulating drugs such as glucocorticoids were added, and luminescence was measured. The cell lines were optimized for luciferase intensity, background, and responsiveness. The transfected cells were then used to screen the drug libraries described above
# The P4 promoter cell line was cultured as described above. Eight drugs that were positive in the small library screen were tested as described above, and luciferase luminescence was measured. Of the eight tested drugs, four acted on the P4 IGF-II promoter. The best-performing non-glucocorticoid candidate that was tested was Vardenafil HCl. […] Vardenafil HCl is a phosphodiesterase type 5 (PDE5) inhibitor with a structure as shown in FIG. 11 and is known to increase cellular cGMP. Vardenafil has been previously FDA approved for treatment of erectile dysfunction and is also clinically used for treating pulmonary hypertension, and is in preclinical studies as a treatment of cystic fibrosis.
# IGF-II protein = IGF-II protein expression in primary spinal cord cultures, quantitated by ELISA; format: cell-based, mice
# Description: Further results of the library screening identified the following therapeutic agents as having a significant inducing effect on IGF-II expression in primary spinal cord cultures and are useful for treating motor neuron disease. Protein expression was quantitated by ELISA.
compound,measurement,setting,value
C[C@]12CCC(=O)C=C1CC[C@@H]1[C@@H]2[C@@H](O)C[C@@]2(C)[C@H]1CC[C@]2(O)C(=O)CO [hydrocortisone],P4 IGF-II promoter activation (known),IGF-II P4 promoter [1],known P4 activator
N=C(N)N/N=C/c1c(Cl)cccc1Cl [Guanabenz acetate],protection of motor neurons against glutamate/PDC excitotoxic insult,[2],provided a level of protection
same,Fold Increase in IGF-II mRNA Expression,IGF-II mRNA,3.8 fold
same,induction of IGF-II expression (in words),"IGF-II mRNA; antihypertensive agents, FIGS. 5 and 6",most active
"IGF-II: recombinant IGF-II (R&D Systems), added exogenously to primary spinal cord cultures",protection of motor neurons from glutamate-induced toxicity,[3],blocked glutamate-induced motor neuron loss completely; also recorded: protected motor neurons against the toxicity; also recorded: protected motor neurons from glutamate-induced toxicity
CCCc1nc(C)c2c(=O)[nH]c(-c3cc(S(=O)(=O)N4CCN(CC)CC4)ccc3OCC)nn12 [Vardenafil HCl],"luciferase luminescence, activation of P4 IGF-II promoter",IGF-II P4 promoter [4],"roughly equal to those of Hydrocortisone at three concentrations; also recorded: activation, as shown in FIG. 9, at a level similar to the known P4 activator hydrocortisone"
same,Fold Increase in IGF-II Protein Expression,IGF-II protein,1.6 fold
same,IGF-II Protein Expression (pg/ml in media),IGF-II protein; in media,(245 ± 27) pg/ml
same,protection of motor neurons against glutamate/PDC excitotoxic insult,[2]; HCl,provided a level of protection; also recorded: rescues primary motor neurons from low-level progressive glutamate toxicity
same,Fold Increase in IGF-II mRNA Expression,IGF-II mRNA; HCl,6.5 fold and 6.5 ± 0.2 fold

# Source: patent publication US20130274235A1, “TREATMENT OF MOTOR NEURON DISEASE” (THE GENERAL HOSPITAL CORPORATION, priority 2010, published 2013)
